Patent US7534418B2, “Imaging agents” (The Regents of the University of Michigan, priority 2004, dated 2009)
“Also recorded” adds a separate entry of the source.

Tested on: cardiac sympathetic neurons of the isolated rat heart
Assay: Kinetics of [11C]phenethylguanidines in isolated perfused working rat heart (neuronal uptake and clearance)
Details: for half-life / Major Clearance Rate T1/2: rat
Source text: To evaluate radiolabeled phenethylguanidines as imaging agents for nuclear medicine, several [^11C]-labeled phenethylguanidines were synthesized and initial bioevaluations of these compounds performed using an isolated rat heart preparation. […] [^11C]-labeling was used to initially assess the imaging properties of these compounds for the following reasons. A radiosynthetic method for making [^11C]guanidines (see, e.g., Westerberg, G. and Langstrom, B. (1997) J. Labeled Compds. Radiopharm. 39:525-529; herein incorporated by reference in its entirety), allowed efficient synthesis and evaluation of these compounds.
The present invention is not limited to a particular mechanism. Indeed, an understanding of the mechanism is not necessary to practice the present invention. […] Provided below is a detailed description of how these specific kinetic properties offer a significant advantage over currently available sympathetic nerve radiotracers.

Row | Compound | Neuronal Uptake Rate Kup (isolated rat heart) | Major Clearance Rate T1/2 | neuronal retention / clearance (in words) (isolated rat heart) | other results
1 | 2-[^18F]fluoro-2-deoxy-D-glucose [FDG, reference compound] |  |  |  | myocardial uptake rate (isolated rat heart, 10 mM glucose, no insulin, 10 min constant infusion, FIG. 5): 0.31 ml/min/g wet
2 | CNC[C@H](O)c1ccc(O)c(O)c1 [EPI, [^11C]epinephrine, reference compound] | 0.60 mL/min/g |  |  | half-life: 26.3 h
3 | C[C@H](N[11CH3])[C@H](O)c1cccc(O)c1 [HED, [^11C]meta-hydroxyephedrine, reference compound] | 2.35 mL/min/g |  |  | 
4 | N=[11C](N)NCCc1ccccc1 [I-1, [^11C]phenethylguanidine] | 1.56 mL/min/g | 3.33 h |  | 
5 | N=[11C](N)NC[C@H](O)c1ccccc1 [I-2, [^11C](−)-β-hydroxyphenethylguanidine] | 0.42 mL/min/g | 19.3 h |  | 
6 | COc1ccc(CCN[11C](=N)N)cc1 [I-3, [^11C]para-methoxy-phenethylguanidine] | 0.73 mL/min/g | 2.28 h |  | 
7 | N=[11C](N)NCCc1cccc(O)c1 [I-4, [^11C]meta-hydroxyphenethylguanidine] | 2.12 mL/min/g | trapped | efficient vesicular storage; also recorded: very long retention times | neuronal uptake rate (in words) (isolated rat heart): fast and rapid
8 | N=[11C](N)NCCc1ccc(O)cc1 [I-5, [^11C]para-hydroxyphenethylguanidine] | 1.92 mL/min/g | 48.13 h | efficient vesicular storage; also recorded: very long retention times | neuronal uptake rate (in words) (isolated rat heart): fast and rapid; neuronal retention / clearance (in words) (isolated rat heart, listed as PHPG): well retained
9 | N=[11C](N)NCCc1ccc(O)c(O)c1 [I-6, [^11C]3,4-dihydroxyphenethylguanidine] | 1.07 mL/min/g | 23.52 h |  | 
10 | N=[11C](N)NCC(O)c1cccc(O)c1 (stereo not drawn) [I-7, N-[^11C]guanyl-meta-octopamine] | 0.28 mL/min/g | 216.67 h | very long neuronal retention times | neuronal uptake rate (in words) (isolated rat heart): slow and slower than all currently used tracers; neuronal uptake rate (isolated rat heart, 10 min constant infusion, FIG. 5): 0.28 ml/min/g wet; neuronal retention / clearance (in words) (isolated rat heart, listed as GMO): well retained; also recorded: neuronal trapping of GMO is more efficient than the myocardial trapping of FDG
11 | N=[11C](N)NC[C@H](O)c1ccc(O)c(O)c1 [I-8, N-[^11C]guanyl-norepinephrine] | 0.09 mL/min/g |  |  | 
12 | C[C@H](N[11C](=N)N)[C@H](O)c1cccc(O)c1 [I-9, N-[^11C]guanyl-(−)-metaraminol] | 0.08 mL/min/g | 20.18 h | very long neuronal retention times | neuronal uptake rate (in words) (isolated rat heart): slow and slower than all currently used tracers
13 | N=[11C](N)NCCc1cccc(F)c1 [II-1, [^11C]meta-fluorophenethylguanidine] | 0.24 mL/min/g | 1.93 h |  | 
14 | N=[11C](N)NCCc1ccc(F)cc1 [II-2, [^11C]para-fluorophenethylguanidine] | 0.63 mL/min/g | 4.43 h |  | 
15 | N=[11C](N)NCCc1ccccc1F [II-3, [^11C]ortho-fluorophenethylguanidine] | 1.76 mL/min/g | 2.25 h |  | 
16 | N=[11C](N)NCCc1ccc(F)c(O)c1 [II-4, [^11C]para-fluoro-meta-hydroxy-phenethylguanidine] | 0.77 mL/min/g | trapped | very long neuronal retention times | 
17 | N=[11C](N)NCCc1cc(O)ccc1F [II-5, [^11C]ortho-fluoro-meta-hydroxy-phenethylguanidine] | 0.54 mL/min/g | 20.12 h | very long neuronal retention times | 
18 | N=[11C](N)NCCc1cccc(I)c1 [III-1, [^11C]meta-iodophenethylguanidine] | 1.10 mL/min/g | 2.38 h | approximately the same rate as MIBG | neuronal uptake rate, times slower than MIBG (isolated rat heart, relative to MIBG): around 3 times
19 | NC(N)=NCc1cccc(I)c1 [MIBG, [^11C]meta-iodobenzylguanidine, reference compound] | 3.65 mL/min/g |  |  | neuronal uptake rate (in words) (isolated rat heart): very rapid
20 | NC[C@H](O)c1ccc(O)c(O)c1 [NE, [^3H]norepinephrine, reference compound] | 4.44 mL/min/g |  |  | half-life: > 16.7 h
21 | CNC[C@H](O)c1cccc(O)c1 [PHEN, [^11C]phenylephrine, reference compound] | 0.72 mL/min/g |  |  | half-life: 1.63 h
